Results: patent publication US6706663B2, “Herbicidal 3-heterocyclic substituted benzisothiazole and benzisoxazole compounds” (Wyeth, priority 2000, dated 2004)

Legend:
ZEAMX (Corn, Field) = assay: Preemergence herbicidal evaluation; format: in vivo, Zea mays, L.; conditions: preemergence, rated 4-5 weeks after treatment
[1] = test system: AMBEL (Ambrosia artemisifolia); assay: Preemergence herbicidal evaluation; format: in vivo, L.; conditions: preemergence, rated 4-5 weeks after treatment
Summary of the method: (§1)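 Greenhouse preemergence test: freshly planted cups were sprayed once with an aqueous acetone solution of compound. Injury was judged visually on a 0–9 scale relative to a control, four to five weeks later.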

[2] = test system: CASOB (Cassia obtusifolia); assay: Preemergence herbicidal evaluation; format: in vivo, L.; conditions: preemergence, rated 4-5 weeks after treatment
Summary of the method: as §1

[3] = test system: CHEAL (Chenopodium album); assay: Preemergence herbicidal evaluation; format: in vivo, L.; conditions: preemergence, rated 4-5 weeks after treatment
Summary of the method: as §1

ORYSAT (Rice, Tebonnet) = assay: Flooded paddy, post-transplant rice tolerance; format: in vivo, Oryza sativa, (L.) Tebonnet; conditions: flooded paddy, post-transplant rice, rated 3-4 weeks after treatment, 0-9 rating scale
Summary of the method: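 Ten-day-old seedlings, 2/pot, silt loam; flood kept 1.5–3 cm over soil; herbicide applied post-transplant; greenhouse; score 0–9 visual vs control.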

[4] = test system: ABUTH (Abutilon theophrasti); assay: Postemergence herbicidal evaluation; format: in vivo, Medic.; conditions: postemergence
Summary of the method: (§2)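 Seedlings grown for about two weeks were sprayed postemergence and then kept under standard greenhouse care. Injury was rated visually 4–5 weeks after treatment on a 0–9 scale against untreated controls, and ratings from repeat tests were averaged.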

[5] = test system: GLXMAW (Soybean, Williams); assay: Postemergence herbicidal evaluation; format: in vivo, Glycine max, (L.) Merr. cv Williams; conditions: postemergence
Summary of the method: as §2

[6] = test system: MOOVA (Monochoria vaginalis); assay: Flooded paddy, preemergence weed control; format: in vivo, Presl.; conditions: rated 3-4 weeks after treatment, 0-9 rating scale
Summary of the method: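 Ratings of 0-9 reflect visual comparison with a control for stand, vigor, deformity, size, chlorosis and overall look. Propagules were placed in shallow silt loam (top 0.5 cm) under a continuous 1.5–3 cm flood and grown in the greenhouse.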

GALAP (Galium aparine) [7] = assay: Preemergence herbicidal evaluation; format: in vivo; conditions: preemergence, rated 4-5 weeks after treatment
Summary of the method: as §1

GALAP (Galium aparine) [8] = assay: Postemergence herbicidal evaluation; format: in vivo; conditions: postemergence
Summary of the method: as §2

[9] = test system: ABUTH (Abutilon theophrasti); assay: Preemergence herbicidal evaluation; format: in vivo, Medic.; conditions: preemergence, rated 4-5 weeks after treatment
SETVI (Setaria viridis) [10] = assay: Preemergence herbicidal evaluation; format: in vivo, (L.) Beau; conditions: preemergence, rated 4-5 weeks after treatment
Summary of the method: as §1

[11] = test system: ECHCG (Echinochloa crus-galli); assay: Preemergence herbicidal evaluation; format: in vivo, (L.) Beau; conditions: preemergence, rated 4-5 weeks after treatment
Summary of the method: as §1

SETVI (Setaria viridis) [12] = assay: Postemergence herbicidal evaluation; format: in vivo, (L.) Beau; conditions: postemergence
Summary of the method: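 Seedlings grown about two weeks were sprayed with compound in 50/50 acetone/water containing 0.5% TWEEN 20, at about 0.0040 to 1.000 kg/ha via nozzle at 40 psi. Plants were kept under greenhouse conditions and visually rated on a 0-9 scale versus control four to five weeks after treatment; replicate tests averaged.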

[13] = test system: IPOHE (Ipomoea hederacea); assay: Postemergence herbicidal evaluation; format: in vivo, (L.) Jacq.; conditions: postemergence
Summary of the method: as §2

[14] = test system: TRZAWR (Wheat, Winter, cv Riband); assay: Postemergence herbicidal evaluation; format: in vivo, Triticum aestivum; conditions: postemergence
Summary of the method: as §2

SMILES	Preemergence herbicidal rating ZEAMX (ZEAMX (Corn, Field); rate 0.0620 kg/ha)	Preemergence herbicidal rating ZEAMX (ZEAMX (Corn, Field); rate 0.1250 kg/ha)	Preemergence herbicidal rating ZEAMX (ZEAMX (Corn, Field); rate 0.2500 kg/ha)	Preemergence herbicidal rating AMBEL ([1]; rate 0.0620 kg/ha)	Preemergence herbicidal rating AMBEL ([1]; rate 0.1250 kg/ha)	Preemergence herbicidal rating AMBEL ([1]; rate 0.2500 kg/ha)	Preemergence herbicidal rating CASOB ([2]; rate 0.0620 kg/ha)	Preemergence herbicidal rating CASOB ([2]; rate 0.1250 kg/ha)	Preemergence herbicidal rating CASOB ([2]; rate 0.2500 kg/ha)	Preemergence herbicidal rating CHEAL ([3]; rate 0.0620 kg/ha)	Preemergence herbicidal rating CHEAL ([3]; rate 0.1250 kg/ha)	Preemergence herbicidal rating CHEAL ([3]; rate 0.2500 kg/ha)	ORYSAT herbicidal rating (transplanted rice tolerance) (ORYSAT (Rice, Tebonnet); rate 0.0320 kg/ha)	ORYSAT herbicidal rating (transplanted rice tolerance) (ORYSAT (Rice, Tebonnet); rate 0.1250 kg/ha)	ABUTH herbicidal rating ([4]; rate 0.0320 kg/ha)	ABUTH herbicidal rating ([4]; rate 0.0620 kg/ha)	GLXMAW herbicidal rating ([5]; rate 0.0320 kg/ha)	GLXMAW herbicidal rating ([5]; rate 0.0620 kg/ha)	MOOVA herbicidal rating ([6]; rate 0.0320 kg/ha)	MOOVA herbicidal rating ([6]; rate 0.1250 kg/ha)	other results
Cn1c(C(F)(F)F)cc(=O)n(-c2ccc3snc(C4OCC(CS(C)(=O)=O)O4)c3c2)c1=O (single isomer, unassigned) [Compound 86, 1-methyl-3-[3-[4-[(methylsulfonyl)methyl]-1,3-dioxolan-2-yl]-1,2-benzisothiazol-5-yl]-6-(trifluoromethyl)uracil]	5.0	8.0	9.0	9.0	9.0	9.0	4.0	9.0	9.0	9.0	9.0	9.0	0.0	5.0	9.0	9.0	9.0	9.0	5.0	9.0	Preemergence herbicidal rating GALAP (GALAP (Galium aparine) [7]; rate 0.0620 kg/ha): 3.0; Preemergence herbicidal rating GALAP (GALAP (Galium aparine) [7]; rate 0.1250 kg/ha): 4.0; Preemergence herbicidal rating GALAP (GALAP (Galium aparine) [7]; rate 0.2500 kg/ha): 9.0; GALAP herbicidal rating (GALAP (Galium aparine) [8]; rate 0.0320 kg/ha): 9.0; GALAP herbicidal rating (GALAP (Galium aparine) [8]; rate 0.0620 kg/ha): 9.0; Preemergence herbicidal rating ABUTH ([9]; rate 0.0620 kg/ha): 9.0; Preemergence herbicidal rating ABUTH ([9]; rate 0.1250 kg/ha): 9.0; Preemergence herbicidal rating ABUTH ([9]; rate 0.2500 kg/ha): 9.0; Preemergence herbicidal rating SETVI (SETVI (Setaria viridis) [10]; rate 0.0620 kg/ha): 7.5; Preemergence herbicidal rating SETVI (SETVI (Setaria viridis) [10]; rate 0.1250 kg/ha): 9.0; Preemergence herbicidal rating SETVI (SETVI (Setaria viridis) [10]; rate 0.2500 kg/ha): 9.0; Preemergence herbicidal rating ECHCG ([11]; rate 0.0620 kg/ha): 7.5; Preemergence herbicidal rating ECHCG ([11]; rate 0.1250 kg/ha): 9.0; Preemergence herbicidal rating ECHCG ([11]; rate 0.2500 kg/ha): 9.0; SETVI herbicidal rating (SETVI (Setaria viridis) [12]; rate 0.0320 kg/ha): 8.0; SETVI herbicidal rating (SETVI (Setaria viridis) [12]; rate 0.0620 kg/ha): 9.0; IPOHE herbicidal rating ([13]; rate 0.0320 kg/ha): 9.0; IPOHE herbicidal rating ([13]; rate 0.0620 kg/ha): 9.0; TRZAWR herbicidal rating ([14]; rate 0.0320 kg/ha): 2.5; TRZAWR herbicidal rating ([14]; rate 0.0620 kg/ha): 3.0
Cn1c(C(F)(F)F)cc(=O)n(-c2ccc3snc(C4OCC(CS(C)(=O)=O)O4)c3c2)c1=O (single isomer, unassigned) [Compound 87, 1-methyl-3-[3-[4-[(methylsulfonyl)methyl]-1,3-dioxolan-2-yl]-1,2-benzisothiazol-5-yl]-6-(trifluoromethyl)uracil]	5.5	8.0	8.5	9.0	9.0	9.0	6.0	9.0	7.0	9.0	9.0	9.0	0.0	3.0	9.0	9.0	9.0	8.5	0.0	8.0	Preemergence herbicidal rating GALAP (GALAP (Galium aparine) [7]; rate 0.0620 kg/ha): 6.0; Preemergence herbicidal rating GALAP (GALAP (Galium aparine) [7]; rate 0.1250 kg/ha): 9.0; Preemergence herbicidal rating GALAP (GALAP (Galium aparine) [7]; rate 0.2500 kg/ha): 9.0; GALAP herbicidal rating (GALAP (Galium aparine) [8]; rate 0.0320 kg/ha): 9.0; GALAP herbicidal rating (GALAP (Galium aparine) [8]; rate 0.0620 kg/ha): 9.0; Preemergence herbicidal rating ABUTH ([9]; rate 0.0620 kg/ha): 9.0; Preemergence herbicidal rating ABUTH ([9]; rate 0.1250 kg/ha): 9.0; Preemergence herbicidal rating ABUTH ([9]; rate 0.2500 kg/ha): 9.0; Preemergence herbicidal rating SETVI (SETVI (Setaria viridis) [10]; rate 0.0620 kg/ha): 6.0; Preemergence herbicidal rating SETVI (SETVI (Setaria viridis) [10]; rate 0.1250 kg/ha): 8.0; Preemergence herbicidal rating SETVI (SETVI (Setaria viridis) [10]; rate 0.2500 kg/ha): 9.0; Preemergence herbicidal rating ECHCG ([11]; rate 0.0620 kg/ha): 5.5; Preemergence herbicidal rating ECHCG ([11]; rate 0.1250 kg/ha): 6.5; Preemergence herbicidal rating ECHCG ([11]; rate 0.2500 kg/ha): 9.0; SETVI herbicidal rating (SETVI (Setaria viridis) [12]; rate 0.0320 kg/ha): 6.0; SETVI herbicidal rating (SETVI (Setaria viridis) [12]; rate 0.0620 kg/ha): 9.0; IPOHE herbicidal rating ([13]; rate 0.0320 kg/ha): 9.0; IPOHE herbicidal rating ([13]; rate 0.0620 kg/ha): 9.0; TRZAWR herbicidal rating ([14]; rate 0.0320 kg/ha): 3.0; TRZAWR herbicidal rating ([14]; rate 0.0620 kg/ha): 4.0
